Measured values published in patent US9708336B2, “Metallo-beta-lactamase inhibitors” (priority 2014, dated 2017).
Read-outs that look alike come from different tables or passages of the source.

Key:
VIM-1 = VIM-1 (Pseudomonas aeruginosa (strain ATCC 15692 / DSM 22644 / CIP 104116 / JCM 14847 / LMG 12228 / 1C / PRS 101 / PAO1), UniProt A0A0F7KYQ8); experiment: Enzyme activity: determination of IC50, fluorescence assay with CCF2-FA substrate (VIM-1); assay type: biochemical
[1] = tested on: Klebsiella pneumoniae expressing VIM-1 (IHMA599644); experiment: Antibiotic potentiation activity: synergistic concentration (MITC95) with imipenem, OD600 growth; assay type: cell-based; details: concentration giving 95% inhibition of bacterial growth
Summary of the method: (§1)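 Overnight colonies (35 °C) were suspended in saline, diluted 1:100 into 1.1× CAMHB, and exposed to test compound with imipenem at 4 μg/ml (optionally 1 μg/ml) in assay. After 22–24 h at 35 °C, growth was read by absorbance.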

[2] = tested on: Escherichia coli expressing NDM-1 (CLB30016); experiment: as above; assay type: cell-based; details: concentration giving 95% inhibition of bacterial growth
Summary of the method: as §1

[3] = tested on: Serratia marcescens expressing IMP-1 (CL5741); experiment: as above; assay type: cell-based; details: concentration giving 95% inhibition of bacterial growth
Summary of the method: as §1

IMP-1 = IMP-1 (Serratia marcescens, UniProt P52699); experiment: biochemical; assay type: biochemical; details: fluorescence assay with CCF2-FA substrate; read-out: IMP-1 IC50
IMP-1, sequence (P52699 whole entry, looked up): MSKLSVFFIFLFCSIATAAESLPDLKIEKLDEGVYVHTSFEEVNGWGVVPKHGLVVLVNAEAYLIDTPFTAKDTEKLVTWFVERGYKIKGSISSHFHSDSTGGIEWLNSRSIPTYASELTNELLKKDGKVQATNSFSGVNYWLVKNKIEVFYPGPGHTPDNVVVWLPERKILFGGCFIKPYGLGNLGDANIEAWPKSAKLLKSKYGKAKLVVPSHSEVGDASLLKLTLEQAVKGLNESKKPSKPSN

NDM-1 = NDM-1 (Klebsiella pneumoniae, UniProt C7C422); experiment: biochemical; assay type: biochemical; details: fluorescence assay with CCF2-FA substrate; read-out: NDM-1 IC50
NDM-1, sequence (C7C422 whole entry, looked up, species assumed): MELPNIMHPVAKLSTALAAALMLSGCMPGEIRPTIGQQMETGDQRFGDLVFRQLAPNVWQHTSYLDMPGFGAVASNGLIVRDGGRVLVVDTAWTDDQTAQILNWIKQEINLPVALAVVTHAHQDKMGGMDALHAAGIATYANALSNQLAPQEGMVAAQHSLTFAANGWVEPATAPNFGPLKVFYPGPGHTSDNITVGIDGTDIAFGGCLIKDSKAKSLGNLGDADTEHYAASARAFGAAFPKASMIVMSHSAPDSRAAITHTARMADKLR

[4] = fluorescence assay with CCF2-FA substrate, read-out: VIM-1 IC50
[5] = VIM-1 IC50, fluorescence assay with CCF2-FA substrate

SMILES	IC50 (VIM-1; [4])	Klebsiella pneumoniae expressing VIM-1 (IHMA 599644) MITC95 [1]	Escherichia coli expressing NDM-1 (CLB 30016) MITC95 [2]	Serratia marcescens expressing IMP-1 (CL5741) MITC95 [3]	IC50 (IMP-1)	IC50 (NDM-1)	IC50 (VIM-1; [5])
COc1ccc2cc(-c3cccc(S(N)(=O)=O)c3-c3nnn[nH]3)cnc2n1 [Example 138, 3-(7-methoxy-1,8-naphthyridin-3-yl)-2-(1H-tetrazol-5-yl)benzenesulfonamide]	166 nM	>200 µM	1.563 µM	37.5 µM	354 nM	6.78 nM	–
Cc1cccn2c(-c3cccc(S(N)(=O)=O)c3-c3nnn[nH]3)cnc12 [Example 139, 3-(8-methylimidazo[1,2-a]pyridin-3-yl)-2-(1H-tetrazol-5-yl)benzenesulfonamide]	5.78 nM	12.5 µM	0.1953 µM	6.25 µM	98.4 nM	0.637 nM	–
NS(=O)(=O)c1cccc(C2=CCOCC2)c1-c1nnn[nH]1 [Example 140, 3-(3,6-dihydro-2H-pyran-4-yl)-2-(1H-tetrazol-5-yl)benzenesulfonamide]	388 nM	50 µM	0.5859 µM	6.25 µM	160 nM	7.68 nM	–
NS(=O)(=O)c1cccc(COc2ccccc2)c1-c1nnn[nH]1 [Example 142, 3-(phenoxymethyl)-2-(1H-tetrazol-5-yl)benzenesulfonamide]	419 nM	>200 µM	1.563 µM	6.25 µM	81 nM	8.2 nM	–
NS(=O)(=O)c1cccc(CCc2ccccn2)c1-c1nnn[nH]1 [Example 144, 3-(2-pyridin-2-ylethyl)-2-(1H-tetrazol-5-yl)benzenesulfonamide]	1540 nM	>200 µM	3.125 µM	200 µM	4500 nM	121 nM	–
NS(=O)(=O)c1cccc(C2CCC2)c1-c1nnn[nH]1 [Example 149, 3-cyclobutyl-2-(1H-tetrazol-5-yl)benzenesulfonamide]	861 nM	150 µM	1.563 µM	6.25 µM	493 nM	23.7 nM	–
Cc1cccc(S(N)(=O)=O)c1-c1nnn[nH]1 [Example 150, 3-methyl-2-(1H-tetrazol-5-yl)benzenesulfonamide]	5650 nM	200 µM	0.7813 µM	6.25 µM	1940 nM	148 nM	–
NS(=O)(=O)c1cccc(C2CCCCC2)c1-c1nnn[nH]1 [Example 151, 3-cyclohexyl-2-(1H-tetrazol-5-yl)benzenesulfonamide]	31.5 nM	37.5 µM	1.172 µM	1.563 µM	31.8 nM	1.25 nM	–
N#Cc1cccc(Cc2cccc(S(N)(=O)=O)c2-c2nnn[nH]2)c1 [Example 152, 3-(3-cyanobenzyl)-2-(1H-tetrazol-5-yl)benzenesulfonamide]	91.4 nM	200 µM	4.688 µM	12.5 µM	252 nM	14.2 nM	–
NS(=O)(=O)c1cccc(CC2CCCCC2)c1-c1nnn[nH]1 [Example 153, 3-(cyclohexylmethyl)-2-(1H-tetrazol-5-yl)benzenesulfonamide]	–	>200 µM	4.688 µM	2.344 µM	71.3 nM	8.25 nM	252 nM
NS(=O)(=O)c1cccc(CCc2ccccc2)c1-c1nnn[nH]1 [Example 154, 3-phenethyl-2-(1H-tetrazol-5-yl)benzenesulfonamide]	–	100 µM	2.344 µM	0.3906 µM	10.8 nM	3.28 nM	80.8 nM
Cc1ccccc1Cc1cccc(S(N)(=O)=O)c1-c1nnn[nH]1 [Example 155, 3-(2-methylbenzyl)-2-(1H-tetrazol-5-yl)benzenesulfonamide]	16.2 nM	75 µM	3.125 µM	2.344 µM	92.7 nM	3 nM	–
CC(C)c1cccc(S(N)(=O)=O)c1-c1nnn[nH]1 [Example 156, 3-isopropyl-2-(1H-tetrazol-5-yl)benzenesulfonamide]	391 nM	50 µM	0.5859 µM	9.375 µM	508 nM	13.1 nM	–
NS(=O)(=O)c1cccc(C2CC2)c1-c1nnn[nH]1 [Example 157, 3-cyclopropyl-2-(1H-tetrazol-5-yl)benzenesulfonamide]	1050 nM	50 µM	0.3906 µM	6.25 µM	561 nM	28.7 nM	–
Cc1cccc(Cc2cccc(S(N)(=O)=O)c2-c2nnn[nH]2)c1 [Example 158, 3-(3-methylbenzyl)-2-(1H-tetrazol-5-yl)benzenesulfonamide]	–	200 µM	3.125 µM	12.5 µM	387 nM	16 nM	352 nM
CC(C)(C)Cc1cccc(S(N)(=O)=O)c1-c1nnn[nH]1 [Example 159, 3-neopentyl-2-(1H-tetrazol-5-yl)benzenesulfonamide]	3390 nM	>200 µM	3.125 µM	18.75 µM	526 nM	34 nM	–
NS(=O)(=O)c1cccc(C2CCCC2)c1-c1nnn[nH]1 [Example 160, 3-cyclopentyl-2-(1H-tetrazol-5-yl)benzenesulfonamide]	280 nM	75 µM	0.7813 µM	9.375 µM	251 nM	9 nM	–
CC(C)(C)c1cccc(S(N)(=O)=O)c1-c1nnn[nH]1 [Example 161, 3-(tert-butyl)-2-(1H-tetrazol-5-yl)benzenesulfonamide]	–	150 µM	1.563 µM	6.25 µM	306 nM	20.1 nM	874 nM
NS(=O)(=O)c1cccc(Cc2ccccc2)c1-c1nnn[nH]1 [Example 162, 3-benzyl-2-(1H-tetrazol-5-yl)benzenesulfonamide]	691 nM	200 µM	1.563 µM	12.5 µM	571 nM	18.9 nM	–
